# According to patent US9365528B2 (Southern Research Institute, priority 2011, dated 2016):
# Read-outs that look alike come from different tables or passages of the source.
# Columns and labels:
# [1] = test system: LT97; assay: Tumor cell growth inhibition, cell viability assay (Cell Titer Glo), 72 h; format: cell-based; conditions: Homo sapiens; Table 3; adenoma; 72 hours of treatment
# Protocol: (§1) The potency to inhibit tumor cell growth was determined by calculating IC50 values using a standard cell viability assay (Cell Titer Glo, Promega Corp,) following 72 hours of treatment. The human colon tumor cell lines, HT-29, SW480, HCT116, and Colo 741 were derived from colon adenocarcinomas, while LT97 is derived from an adenoma. Fetal human colonocytes (FHC) are representative of normal colonocytes. The lack of effect inhibiting cyclooxygenases 1 and 2 (COX-1 and -2) is also shown.
# [2] = test system: HT29; assay: as above; format: cell-based; conditions: Homo sapiens, HT-29
# Protocol: as §1
# [3] = test system: Colo741; assay: as above; format: cell-based; conditions: Homo sapiens, COLO-741; Table 3; colon adenocarcinoma; 72 hours of treatment
# Protocol: as §1
# [4] = test system: HCT116; assay: as above; format: cell-based; conditions: Homo sapiens, HCT-116
# Protocol: as §1
# [5] = test system: SW480; assay: as above; format: cell-based; conditions: Homo sapiens
# Protocol: as §1
# [6] = test system: Fetal human colonocytes (FHC); assay: Cell growth inhibition, cell viability assay (Cell Titer Glo), 72 h; format: cell-based; conditions: Table 3, normal colonocytes, 72 hours of treatment
# Protocol: as §1
# [7] = molecular target: T1, COX-2 (Homo sapiens, UniProt P35354); assay: COX inhibition, colorimetric assay with recombinant COX enzymes
# T1 sequence (P35354 18-604): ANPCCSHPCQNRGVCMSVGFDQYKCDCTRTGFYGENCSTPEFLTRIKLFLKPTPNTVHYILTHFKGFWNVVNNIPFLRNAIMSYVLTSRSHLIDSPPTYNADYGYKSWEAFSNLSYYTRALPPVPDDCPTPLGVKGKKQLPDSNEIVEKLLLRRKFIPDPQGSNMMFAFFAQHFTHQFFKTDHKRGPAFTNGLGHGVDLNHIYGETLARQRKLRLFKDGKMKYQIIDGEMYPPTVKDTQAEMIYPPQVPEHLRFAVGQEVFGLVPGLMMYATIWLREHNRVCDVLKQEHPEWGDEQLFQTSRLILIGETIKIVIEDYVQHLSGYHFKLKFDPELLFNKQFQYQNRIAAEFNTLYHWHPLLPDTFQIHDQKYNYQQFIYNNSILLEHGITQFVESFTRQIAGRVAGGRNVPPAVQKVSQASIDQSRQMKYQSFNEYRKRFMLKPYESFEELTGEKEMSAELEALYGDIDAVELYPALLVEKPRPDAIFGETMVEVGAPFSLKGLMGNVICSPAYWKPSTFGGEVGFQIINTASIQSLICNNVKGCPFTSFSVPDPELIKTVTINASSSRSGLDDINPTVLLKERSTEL
# Protocol: (§2) The enzyme activity was measured using a colorimetric assay using recombinant COX enzymes. […] The growth inhibitory activity was determined following 72 hours of treatment using a standard cell viability assay (Cell Titer Glo, Promega Corp).
# [8] = test system: MCF-7; assay: Breast tumor cell growth inhibitory activity; format: cell-based; conditions: Homo sapiens, MCF7; Table 1, breast
# [9] = test system: MDA-MB-231; assay: Tumor cell growth inhibition, cell viability assay (Cell Titer Glo), 72 h; conditions: Homo sapiens
# Protocol: as §2
# [10] = molecular target: COX-1 (Homo sapiens, UniProt P23219); assay: COX inhibition, colorimetric assay with recombinant COX enzymes
# Sequence of COX-1 (P23219 24-599): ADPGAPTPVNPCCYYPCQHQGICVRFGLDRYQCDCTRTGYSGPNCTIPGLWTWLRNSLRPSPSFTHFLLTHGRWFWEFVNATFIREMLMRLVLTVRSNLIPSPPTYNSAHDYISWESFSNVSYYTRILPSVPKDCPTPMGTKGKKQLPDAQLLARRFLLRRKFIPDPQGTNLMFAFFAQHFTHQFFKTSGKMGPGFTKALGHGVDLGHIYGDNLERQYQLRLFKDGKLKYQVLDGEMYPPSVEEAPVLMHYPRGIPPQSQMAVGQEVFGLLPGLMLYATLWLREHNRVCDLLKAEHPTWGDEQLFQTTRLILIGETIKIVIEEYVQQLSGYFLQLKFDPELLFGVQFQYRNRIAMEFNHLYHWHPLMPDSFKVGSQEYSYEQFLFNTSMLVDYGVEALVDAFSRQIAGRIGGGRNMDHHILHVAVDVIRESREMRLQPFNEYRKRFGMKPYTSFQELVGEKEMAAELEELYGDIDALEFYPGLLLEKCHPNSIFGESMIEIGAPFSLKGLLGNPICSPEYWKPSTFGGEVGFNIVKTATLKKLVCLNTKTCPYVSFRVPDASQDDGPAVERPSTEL
# Protocol: as §2
# [11] = test system: SKBR3; assay: Breast tumor cell growth inhibitory activity; format: cell-based; conditions: Homo sapiens, SK-BR-3; Table 1, breast
# [12] = test system: PC3; assay: Tumor cell growth inhibitory activity; format: cell-based; conditions: Homo sapiens, PC-3
# [13] = Table 3, colon adenocarcinoma, 72 hours of treatment, read-out: HT29 (IC50)
# [14] = Table 3, colon adenocarcinoma, 72 hours of treatment, read-out: HCT116 (IC50)
# [15] = Table 3, colon adenocarcinoma, 72 hours of treatment, read-out: SW480 (IC50)
# [16] = Table 1, colon, read-out: Colon tumor cell growth inhibitory activity (IC50, μM) HT29
# [17] = Table 1, colon, read-out: Colon tumor cell growth inhibitory activity (IC50, μM) HCT116
# [18] = Table 1, colon, read-out: Colon tumor cell growth inhibitory activity (IC50, μM) SW480
# [19] = MDA-MB-231, read-out: Breast tumor cell growth inhibitory activity (IC50, μM) MDA-MB-231
# [20] = Table 1, compounds 10-13, read-out: Tumor cell growth inhibitory activity (IC50, μM) HT29
# [21] = scheme table, read-out: IC50 (μM) HT29
# [22] = MDA-MB-231, read-out: IC50 (μM) MDA-MB-231
# [23] = MDA-MB-231, read-out: Tumor cell growth inhibitory activity (IC50, μM) MDA-MB-231 (breast)
# [24] = Table 1, compounds 10-13, read-out: Tumor cell growth inhibitory activity (IC50, μM) PC3
# [25] = scheme table, read-out: IC50 (μM) PC3
Compound,IC50 [1] [µM],"IC50 [2, 13] [µM]",IC50 [3] [µM],"IC50 [4, 14] [µM]","IC50 [5, 15] [µM]",IC50 [6] [µM],"IC50 [2, 16] [µM]","IC50 [4, 17] [µM]","IC50 [5, 18] [µM]",IC50 [8] [µM],"IC50 [9, 19] [µM]",IC50 [11] [µM],"IC50 [2, 20] [µM]","IC50 [2, 21] [µM]","IC50 [9, 22] [µM]","IC50 [9, 23] [µM]","IC50 [12, 24] [µM]","IC50 [12, 25] [µM]",other results
"CSc1ccc(/C=C2/C(C)=C(CC(=O)O)c3cc(F)ccc32)cc1 [Sulindac sulfide, reference compound]",37.8,73.6,150,73.3,85.2,> 200,,,,,,,,,,,,,
CSc1ccc(/C=C2/C(C)=C(CCNCc3ccccc3)c3cc(F)ccc32)cc1 [Compound 1],6.82,2.67,8.85,4.93,3.28,7.83,2.7,4.9,3.3,6.8,5.8,3.4,,,,,,,IC50 [7]: > 200 µM; IC50 [10]: > 200 µM
CC1=C(CCNCc2ccccc2)c2cc(F)ccc2/C1=C\c1ccc(S(C)(=O)=O)cc1 [Compound 9],8.85,2.02,5.87,6.44,5.36,11.2,1.8,,,,,,,,,,,,IC50 [7]: > 100 µM; IC50 [10]: > 100 µM
"COc1cc(/C=C2/C(C)=C(CN(Cc3ccncc3)Cc3ccncc3)c3cc(F)ccc32)cc(OC)c1OC [Compound 13, (Z)-1-(5-Fluoro-2-methyl-1-(3,4,5-trimethoxybenzylidene)-1H-inden-3-yl)-N,N-bis(pyridin-4-ylmethyl)methanamine]",,,,,,,,,,,,,9.83,9.83,8.21,8.21,9.09,9.09,melting point: 66.4 °C
CSc1ccc(/C=C2/C(C)=C(CCNCCN3CCCCC3)c3cc(F)ccc32)cc1 [Compound 3],,,,,,,3,3.8,5.4,6.4,5.3,4.8,,,,,,,
CSc1ccc(/C=C2/C(C)=C(CCN)c3cc(F)ccc32)cc1 [Compound 4],,,,,,,4.1,4.9,4.1,5.9,5.5,3.9,,,,,,,
"CSc1ccc(/C=C2/C(C)=C(CN)c3cc(F)ccc32)cc1 [Compound 10, (Z)-(5-Fluoro-2-methyl-1-(4-(methylthio)benzylidene)-1H-inden-3-yl)methanamine]",,,,,,,,,,,,,16,16,19.3,19.3,33.6,33.6,
"CSc1ccc(/C=C2/C(C)=C(CN(Cc3ccncc3)Cc3ccncc3)c3cc(F)ccc32)cc1 [Compound 12, (Z)-1-(5-Fluoro-2-methyl-1-(4-(methylthio)benzylidene)-1H-inden-3-yl)-N,N-bis(pyridin-4-ylmethyl)methanamine]",,,,,,,,,,,,,10.8,10.8,9.5,9.5,12.7,12.7,
"COc1cc(/C=C2/C(C)=C(CN)c3cc(F)ccc32)cc(OC)c1OC [Compound 11, (Z)-(5-Fluoro-2-methyl-1-(3,4,5-trimethoxybenzylidene)-1H-inden-3-yl)methanamine]",,,,,,,,,,,,,14.6,14.6,15.3,15.3,29.7,29.7,
CC1=C(CCNCc2ccco2)c2cc(F)ccc2/C1=C\c1ccc([S+](C)[O-])cc1 (centres unmarked) [Compound 7],,,,,,,2.3,,,,3.7,,,,,,,,
